Test results from patent publication US20110217293A1, “Uses of morelloflavone” (priority 2008, published 2011).
Entries after “also recorded” stand apart in the source; their conditions may differ.

Key:
[1] = target: T1, Lp-PLA2 (Homo sapiens, UniProt Q13093); experiment: PLA2 enzyme activity assay, Lp-PLA2; format: biochemical; conditions: recombinant human Lp-PLA2, data not shown
T1 sequence (Q13093 22-441): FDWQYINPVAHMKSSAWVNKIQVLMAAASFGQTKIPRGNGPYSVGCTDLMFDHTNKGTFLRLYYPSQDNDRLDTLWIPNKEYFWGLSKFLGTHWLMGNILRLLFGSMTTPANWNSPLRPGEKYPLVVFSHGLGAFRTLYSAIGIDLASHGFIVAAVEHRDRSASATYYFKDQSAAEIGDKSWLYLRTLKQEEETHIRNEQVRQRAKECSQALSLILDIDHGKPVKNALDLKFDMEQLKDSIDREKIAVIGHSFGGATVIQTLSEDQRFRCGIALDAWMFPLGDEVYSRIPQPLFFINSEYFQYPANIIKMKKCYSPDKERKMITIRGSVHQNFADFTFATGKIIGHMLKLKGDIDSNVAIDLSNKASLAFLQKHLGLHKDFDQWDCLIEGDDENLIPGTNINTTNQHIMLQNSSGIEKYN
Description: (§1) Recombinant human sPLA2 isoforms, Group IB, Group IIA, Group V, and Lp-PLA2 were obtained from R&D Systems and Cayman Chemical Co. sPLA2 enzyme activities in the presence of various concentrations of morelloflavone or other inhibitors were determined using a commercially available assay system according to the manufacturer's instructions (Cayman Chemical Co.). Thioetheramide-1-palmitylthio-2-palmitoylamido-1,2-dideoxy-sn-glycero-3-phosphorylcholine (T-PC) and methyl arachidonyl fluorophosphonate (MAFP) were used as inhibitors of sPLA2 (IB, IIA, and V) and Lp-PLA2, respectively, per manufacturers' instructions.

[2] = system: vascular smooth muscle cells; experiment: DNA fragmentation (apoptosis) assay; format: cell-based
Description: (§2) Mouse vascular smooth muscle cells, isolated as described (13), were maintained in 231 media (Cascade Biologics, Portland, Oreg.) supplemented with SMGS (Cascade Biologics) in a humidified incubator at 37° C. with 5% CO2. Cells from passages 4-9 were used in all experiments. All experiments were performed in subconfluent, unsynchronized cells growing in SMGS except for the lamellipodium formation assay.
Vascular smooth muscle cells were seeded at 1×10^5 cells per well in 24-well culture plates, treated with morelloflavone, and subjected to DNA fragmentation assay, according to the manufacturer's instructions (Cell Death Detection ELISAPLUS, Roche). Briefly, the cells were treated with […] of morelloflavone for 24 hrs. The 1×10^5 cells were lysed, cleared by centrifugation, and transferred into streptavidin-coated plates. Anti-histone antibody conjugated to biotin and anti-nucleosomal-DNA-antibody conjugated to horseradish peroxidase were added. After incubation and washing, 2,2′-azino-bis-[3-ethylbenzthiazoline-6-sulfonic acid] (ABTS) substrate solution was added. The 5 absorbance rate at 405 nm against ABTS solution was measured with the reference wavelength of 490 nm.

[3] = target: T2, sPLA2-IIA (Homo sapiens, UniProt P14555); experiment: sPLA2 enzyme activity assay, Group IIA; format: biochemical; conditions: recombinant human sPLA2-IIA, data not shown
T2 sequence (P14555 21-144): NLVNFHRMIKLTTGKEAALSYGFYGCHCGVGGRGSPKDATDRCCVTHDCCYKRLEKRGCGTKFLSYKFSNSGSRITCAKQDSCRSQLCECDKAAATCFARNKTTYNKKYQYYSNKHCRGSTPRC
Description: as §1

[4] = system: vascular smooth muscle cells; experiment: Scratch wound cell migration assay; format: cell-based, mouse; conditions: for migration index: 18 hrs
Description: as §2
Vascular smooth muscle cells that had been grown to confluence in 6-well culture plates were scratched with a sterile […] pipette tip and exposed to various concentrations of morelloflavone. The cells were allowed to migrate onto the plastic surface for 18 hrs and photographed. A migration index was determined based on the number of cells that migrated onto 1 mm^2 free plastic surface, using the Image J software (NIH).

[5] = target: T3, sPLA2-V (Homo sapiens, UniProt P39877); experiment: sPLA2 enzyme activity assay, Group V; format: biochemical; conditions: recombinant human sPLA2-V, data not shown
T3 sequence (P39877 21-138): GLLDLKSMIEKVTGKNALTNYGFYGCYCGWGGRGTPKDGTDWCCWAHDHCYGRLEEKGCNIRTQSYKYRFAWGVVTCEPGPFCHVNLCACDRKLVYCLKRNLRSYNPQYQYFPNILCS
Description: as §1

[6] = system: plasma lipid peroxidation; experiment: Thiobarbituric acid reactive substances (TBARS) assay; format: in vivo, mouse; conditions: treated Ldlr−/−Apobec1−/− mice, N=12
Description: EDTA-added mouse plasma was stored at −80° C. until the assay. The assay was performed using a commercially available kit according to the manufacturer's instructions. The degree of plasma lipid peroxidation was expressed in terms of equivalent malondialdehyde (MDA) concentration (Cayman Chemical Co., Ann Arbor, Mich.).

[7] = system: vascular smooth muscle cells; experiment: Cell cycle analysis by flow cytometry; format: cell-based, mouse; conditions: concentrations up to 10 mM (10 μM), 24 hr
Description: as §2
Vascular smooth muscle cells (1×106) were seeded onto 10-cm dishes and treated with various concentrations of morelloflavone. After 24 hr incubation, the cells were fixed with 70% ethanol at 4° C. overnight, treated with RNAse in PBS, stained with propidium iodide (Sigma, St. Louis, Mo.), and subjected to flow cytometric DNA content analysis using Epics XL (Beckman-Coulter, Miami, Fla.). The percentages of cells in G1, S, and G2/M phases were determined using Multi-cycle system software (Phoenix Flow System, San Diego, Calif.).

O=C1c2c(O)cc(O)cc2O[C@H](c2ccc(O)cc2)[C@H]1c1c(O)cc(O)c2c(=O)cc(-c3ccc(O)c(O)c3)oc12 [morelloflavone, 5,7, 4′, 5″, 7″, 3″, 4″-heptahydroxy-[3,8″]-flavonylflavanone]
inhibition of Lp-PLA2 [1]: did not inhibit | DNA fragmentation indices, trend with concentration ([2]; 0, 1, 10, 100 mM): decreased as morelloflavone concentrations increased | apoptosis / induction of DNA fragmentation ([2]; concentrations equal to or less than 100 mM, 24 hrs): did not induce DNA fragmentation; also recorded: does not cause apoptosis; also recorded: does not induce cytotoxicity | IC50 [3]: > 10 µM | effect on vascular smooth muscle cell migration ([4]; 0-100 mM, effect from 1 mM (1 μM)): inhibited in a dose-dependent fashion; also recorded: profound effects on migration; also recorded: blocks | migration index ([4]; 1 mM morelloflavone): 487.6±36.9 cells/mm^2 | migration index ([4]; 10 mM morelloflavone): 411.3±39.5 cells/mm^2 | migration index ([4]; 100 mM morelloflavone): 191.86±32.8 cells/mm^2 | IC50 [5]: > 10 µM | Thiobarbituric acid reactive substances concentration (plasma) [6]: 6.33 ± 1.47 µM | effect on cell cycle progression [7]: did not significantly affect; also recorded: does not affect cell cycle progression
